Data reported in patent US6350729B1, “Inhibition of nitric oxide-mediated hypotension and septic shock with iron-containing hemoprotein” (Board of Regents, The University of Texas System, priority 1992, dated 2002).
Where two headings read alike, the source gives them in different places.

Key:
[1] = tested on: endotoxin-induced hypotension; assay: Endotoxin-induced hypotension in anesthetized dog, mean arterial blood pressure; assay type: in vivo
Description: Experiments were carried out on conditioned mongrel dogs weighing 23-28 kg. Animal care was in accordance with the recommendations of the American Association for Accreditation of Laboratory Animal Care and met all standards prescribed by the Guide for the Care and Use of Laboratory Animals (Committee on Care and Use of Laboratory Animals (1978) Guide for the Care and Use of Laboratory Animals (Natl. Inst. Health, Bethesda, Md.) DHEW Publ. No. (NIH) 78-83.
The dog was fasted overnight before the day of the experiment and was anesthetized with pentobarbital (25 mg/kg, i.v.), orotracheally intubated and ventilated with a Harvard pump at a nominal rate of 12 breaths per minute and a tidal volume of 15 ml/kg. The dog was instrumented with a cordis for the introduction of a Swan-ganz catheter for measurement of central venous and pulmonary arterial pressures as well as an arterial line for continuous blood pressure monitoring via a computer driven analog to digital processor.
After the blood pressure and heart rate was stabilized, endotoxin was administered to the dog as a bolus injection (50 μg/kg, i.v. in 10 ml DPBS. After the onset of hypotension, a rapid infusion of 50 ml hemoglobin (5.0 g commercially available bovine hemoglobin/100 ml) over 20 seconds was administered by a central venous catheter. Cardiovascular changes were monitored for an additional 12 hrs. after hemoglobin administration.
A tracing depicting endotoxin-induced hypotension, its inhibition by hemoglobin, and subsequent administration of bovine serum albumin (5 grams) is shown in FIG. 1. Mean arterial blood pressure declined from 160 mm Hg to 70 mm Hg two hours after endotoxin administration. The hemoglobin (HgB) was subsequently administered as an intravenous bolus. […] This effect lasted approximately 45 minutes before the blood pressure decline resumed. […] On repetition of this experiment, substantially the same results were obtained.

blood pressure [2] = details: guinea pigs; cited from earlier work
blood pressure [3] = details: rabbits; cited from earlier work
rabbit aortic rings = details: cited from earlier work
[4] = Kinetic 96-well microplate assay, capture of NO by Fe2+-myoglobin; assay type: biochemical; details: 5 μM Mb, endothelial cell cytosol, 500 μM L-arginine, 500 μM NADPH, 80 mM TRIS pH 7.6, 25° C.
Description: Nitric oxide formation by endothelial cell cytosol was measured by a novel kinetic 96-well microplate assay. The assay is based on the capture of NO by Fe^2+-myoglobin (Mb) which is subsequently oxidized to Fe^3+-myoglobin. The process of heme oxidation was continuously measured in a kinetic microplate reader (Molecular Devices, Menlo Park Calif.) as the rate of change in OD405-OD650. Data points were collected from all 96 wells every 16 sec. for 30 minutes at 25° C. with shaking prior to each OD measurement. The slope of the best fit regression line (OD/min) was used to calculate the rate of NO-synthesis. OD/min measurements were converted to pmoles NO/min by dividing by the increase in OD405-OD650 measured upon complete oxidation of 1 pmole of reduced Mb with a 10-fold molar excess of potassium ferricyanide. Under the conditions employed, the efficiency of NO capture by Mb approached 100%; neither doubling nor halving the concentration of Mb influenced the Mb oxidation rate. All samples contained 5-30 μl of endothelial cell cytosol (1-6 mg protein/ml) and final concentrations of 5 μM Mb, 500 μM L-arginine, 500 μM NADPH and 80 Mm TRIS, pH 7.6.
Fe^2+-Myoglobin Preparation: 2 mM myoglobin (from horse skeletal muscle, Sigma) was reduced with a sodium dithionite and immediately applied to a Sephadex G-25 column, followed by elution with 50 Mm TRIS buffer, Ph 7.6. […]

Q: With “bovine serum albumin: bovine serum albumin (5 grams) given as protein comparison after hemoglobin [reference compound]” as the molecule, how does the “subsequent blood pressure decline” value ([1]; endotoxin-induced hypotension, 5 grams given after the hemoglobin effect ended) read?
A: only slightly influenced

Q: What does the source list for `CNC(=N)NCCC[C@H](N)C(=O)O` [N^G-methyl-L-arginine]?
A: effect on blood pressure (blood pressure [2]): increase blood pressure; effect on blood pressure (blood pressure [3]): increase blood pressure

Q: For “hemoglobin: commercially available bovine hemoglobin, 5.0 g/100 ml, iron hemoprotein given intravenously”, which “endotoxin-induced mean arterial decline (FIG. 1)” value ([1]; FIG. 1 legend) is on record?
A: interrupted

Q: What about the “duration of effect before the blood pressure decline resumed” value ([1]; endotoxin 50 μg/kg i.v., 50 ml of 5.0 g/100 ml bovine hemoglobin over 20 seconds) of the same molecule?
A: approximately 45 minutes

Q: What about the blood pressure drop ([1]; endotoxin 50 μg/kg i.v., intravenous bolus after mean arterial pressure fell from 160 to 70 mm Hg at two hours) of the same molecule?
A: abrogated

Q: What about the hypotension ([1]; endotoxin 50 μg/kg i.v., intravenous bolus after onset of hypotension) of the same molecule?
A: partially reversed

Q: What about the “endothelium-dependent relaxation induced by acetylcholine or by A23187” value (rabbit aortic rings; 1 μM) of the same molecule?
A: reduced

Q: What about the “endothelium-dependent relaxation induced by acetylcholine or by A23187” value (rabbit aortic rings; 10 μM) of the same molecule?
A: abolished

B1: Mb: myoglobin from horse skeletal muscle, Sigma, reduced to Fe2+ form (protein, UniProt P68082 2-154, looked up)
Myoglobin: GLSDGEWQQVLNVWGKVEADIAGHGQEVLIRLFTGHPETLEKFDKFKHLKTEAEMKASEDLKKHGTVVLTALGGILKKKGHHEAELKPLAQSHATKHKIPIKYLEFISDAIIHVLHSKHPGDFGADAQGAMTKALELFRNDIAAKYKELGFQG
Q: With B1 as the molecule, how does the “efficiency of NO capture” value [4] read?
A: ~100%
